The subject of test [1] is ATF4-G4 (Pu22T) (DNA, G4) TAAGGGAGGGAGGGAAGGGAGC
Briefly: NMR solution structure and 1H NMR titration. The following applies: 10 mM K+ (structure); 50 mM K+ (titration); pH 7, 25 °C; 2.11 mM DNA with 2.4 equivalents COP.

For test [2] the test system is unchanged. Kind of test: fluorescence titration. The following applies: 50 mM K+; 0.2 µM COP, DNA added stepwise; excitation 377 nm, emission 520-600 nm.
The test system is the same in test [3]. Briefly: CD melting at 264 nm. Particulars: 5 mM K+ (potassium phosphate); pH 7; 20 µM DNA; COP concentration not given.

For `c1c2c(cc3c1OCO3)-c1cc3ccc4c(c3c[n+]1CC2)OCO4`, the binding entry in test [1] is recorded as “yes”. Further, the Kd in test [2] is ~ 3.9 µM. In addition, the ΔTm (in general, the change in melting temperature against a reference sample) in test [3] is 25 °C.
